Measurements reported in US4886915A, “Water soluble organic ammonium per halides” (priority 1988, dated 1989).
Blank lines part the entries; values can stand above or below the compound they belong to.

Tests used:
[1] = Titration for oxidizable bromine (Standard Methods for the Examination of Water and Waste Water, Method 408A); conditions: for Ox. Br2 of the sample used for vapor pressure: Table 9; for Tit. Ox. Br2: Table 1, aqueous solution prepared from 48% HBr
[2] = Vapor pressure of aqueous organic ammonium perbromides (isoteniscope); conditions: for vapor pressure of bromine: 26° C., bromine water approx. 3.5% by weight, NaBr3 and perbromides roughly 40% Br2; for Vp: @ 26° C., Table 9
[3] = Water solubility of perbromides; conditions: for Solubility: in water, Tables 2 and 3
[4] = Perbromide closed-bottle shelf life stability at ambient temperature; conditions: for Initial Ox. Br2: time zero
Procedure: (§1) In order to determine the shelf life stability of the perbromide solutions, a series of studies were conducted to determine the percent bromine lost over time. The following tables shown below list the perbromides studied and the percent oxidizable bromine lost over time. The perbromides studied were kept in closed bottles in ambient conditions (Table 7) and at 50° C.

[5] = Perbromide closed-bottle shelf life stability at 50° C.; conditions: for Initial Ox. Br2: time zero
Procedure: as §1

[6] = Table 2, perbromide separated as bottom viscous liquid phase
[7] = ambient, time elapsed 24 months (#3 17, #11 16, #23 22 months)
[8] = ambient, time elapsed 24 months (#3 17, #11 16, #23 22 months), 1.0512e+06 min
[9] = 50° C., time elapsed 40 (months)
[10] = Table 4, concentrated (74.1% hydrobromide, #17) and anhydrous (100%, #18-20)

Compound: 1,6-Hexanediammonium [compound 16]
Tit. Ox. Br ([1]; Table 3, crystalline perbromide precipitated out of aqueous solution): 51.8 % by Weight

Compound: BrBr [compound 35, Pure Bromine]
Ox. Br2 of the sample used for vapor pressure [1]: 100 % by Weight | vapor pressure of bromine [2]: approximately 220 mm Hg | Vp [2]: 223 mmHg

Compound: Bromine in H2 O [compound 34]
Ox. Br2 of the sample used for vapor pressure [1]: 3.5 % by Weight | vapor pressure of bromine [2]: 210 mm Hg | Vp [2]: 210 mmHg

Solubility [3]: 1.0 g./100 g H2O | Tit. Ox. Br [1, 6]: 40.9 % by Weight | Vp [2]: 38 mmHg | Change in % Br2 [4, 7]: 2.1% | Final Ox. Br2 [4, 7]: 41.1 % by Weight | Relative Change in % Br2 [4, 8]: 4.9% | Initial Ox. Br2 ([4]; ambient): 43.2 % by Weight
Compound: Dibutylammonium Perbromide [compound 11]

Compound: Diethanolammonium Perbromide [Compound #4]
Vp [2]: 49 mmHg | Change in % Br2 [5, 9]: 7.0% | Final Ox. Br2 [5, 9]: 30.0 % by Weight | Initial Ox. Br2 ([5]; 50° C.): 37.0 % by Weight | Change in % Br2 [4, 7]: 2.0% | Final Ox. Br2 [4, 7]: 35.0 % by Weight | Initial Ox. Br2 ([4]; ambient): 37.0 % by Weight

Compound: Diethanolammonium Perbromide [Compound #20]
water solubility (in words) [3]: very soluble in water | Tit. Ox. Br [1, 10]: 45.3 % by Weight

Compound: Diethylethanolammonium [compound 14, reference compound]
water solubility (in words) [3]: only sparingly soluble in water | Solubility [3]: 0.1 g./100 g H2O | Tit. Ox. Br [1, 6]: 42.3 % by Weight

Compound: Dimethylethanolammonium Perbromide [Compound #7, reference compound]
Vp [2]: 30 mmHg

Tit. Ox. Br [1, 6]: 45.1 % by Weight
Compound: Dipropylammonium Perbromide [compound 10]

Change in % Br2 [5, 9]: 1.8% | Final Ox. Br2 [5, 9]: 39.0 % by Weight | Initial Ox. Br2 ([5]; 50° C.): 40.8 % by Weight | Relative Change in % Br2 ([5]; 29200 h): 4.4% | Relative Change in % Br2 ([4]; 17520 h): 4.0% | Change in % Br2 [4, 7]: 1.6% | Final Ox. Br2 [4, 7]: 38.5 % by Weight | Initial Ox. Br2 ([4]; ambient): 40.1 % by Weight
Compound: Ethanolammonium Perbromide [Compound #1]

Tit. Ox. Br [1, 10]: 47.3 % by Weight
Compound: Ethanolammonium Perbromide [Compound #17]

Tit. Ox. Br [1, 10]: 51.8 % by Weight
Compound: Ethanolammonium Perbromide [Compound #18]

Relative Change in % Br2 ([5]; 29200 h): 3.1% | Relative Change in % Br2 ([4]; 17520 h): 2.0%
Compound: Ethanolammonium Perbromide [Compound #21]

Tit. Ox. Br2 [1]: 37.7 % by Weight
Compound: Ethylethanolammonium Perbromide [compound 6]

Compound: Hexylammonium Perbromide [compound 8]
Tit. Ox. Br2 [1]: 36.1 % by Weight

Tit. Ox. Br2 [1]: 39.3 % by Weight | Ox. Br2 of the sample used for vapor pressure [1]: 39.3 % by Weight | Vp [2]: 28 mmHg
Compound: Methylethanolammonium Perbromide [compound 5]

Tit. Ox. Br2 [1]: 34.7 % by Weight
Compound: Octylammonium Perbromide [compound 9]

Compound: Propylammonium Perbromide [Compound #3]
Tit. Ox. Br2 [1]: 39.3 % by Weight | Ox. Br2 of the sample used for vapor pressure [1]: 39.3 % by Weight | Vp [2]: 36 mmHg | Change in % Br2 [5, 9]: 2.0% | Final Ox. Br2 [5, 9]: 39.0 % by Weight | Relative Change in % Br2 ([5]; 50° C., time elapsed 40 (months), 1.752e+06 min): 4.9% | Initial Ox. Br2 ([5]; 50° C.): 41.0 % by Weight | Change in % Br2 [4, 7]: 0.3% | Final Ox. Br2 [4, 7]: 41.0 % by Weight | Relative Change in % Br2 [4, 8]: 0.7% | Initial Ox. Br2 ([4]; ambient): 41.3 % by Weight

Compound: Propylammonium Perbromide [Compound #19]
Tit. Ox. Br [1, 10]: 53.2 % by Weight

Relative Change in % Br2 ([5]; 29200 h): 2.7% | Relative Change in % Br2 ([4]; 17520 h): 2.3%
Compound: Propylammonium Perbromide [compound 22]

vapor pressure of bromine [2]: 140 mm Hg | Vp [2]: 145 mmHg
Compound: Sodium (NaBr3) [compound 33]

Compound: Tributylammonium Perbromide [compound 12, reference compound]
Tit. Ox. Br [1, 6]: 36.0 % by Weight | Ox. Br2 of the sample used for vapor pressure [1]: 37.5 % by Weight | Vp [2]: 28 mmHg
